Assay results from patent publication US6900194B1, “Use of substituted 4-biarylbutyric and 5-biarylpentanoic acid derivatives as matrix metalloprotease inhibitors for the treatment of respiratory diseases” (Bayer Aktiengesellschaft, priority 1998, dated 2005).

Molecular target: T1, MMP-7 (Matrilysin) (Homo sapiens, UniProt P09237)
T1 construct: Catalytic domain expressed in E. coli using the pET 14 vector, provided by Dr Steve Shapiro; host or cells: E. coli
T1 sequence (P09237 95-267): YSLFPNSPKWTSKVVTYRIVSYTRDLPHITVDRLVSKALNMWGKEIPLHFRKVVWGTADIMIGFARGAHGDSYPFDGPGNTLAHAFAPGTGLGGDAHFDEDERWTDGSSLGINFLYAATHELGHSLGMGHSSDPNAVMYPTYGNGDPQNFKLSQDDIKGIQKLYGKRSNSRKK
Assay: P218 quenched fluorescence assay, MMP-7
Type: biochemical
Excerpt: P218 Quenched Fluorescence Assay for MMP Inhibition:
This assay is adapted from the one described by Knight et al., FEBS Letters, 296, 263-266 (1992) for MMP-3 and a related substrate. The rate of hydrolysis of the synthetic substrate H-MCA-Pro-Lys-Pro-Leu-Ala-Leu-DPA-Ala-Arg-NH2 (P218) by the respective MMPs is monitored fluorometrically, using an excitation wavelength of 340 nm and an emission wavelength of 395 nm, in the presence or absence of the test compounds. The substrate is made up initially in 100% DMSO to a concentration of 1×10^−2 M, then diluted in assay buffer to a final concentration of 20 μM. […] The total assay volume in a 96 well microtitre plate is 150 μl, Cleavage of the substrate between the Leu-Ala residues allows the fluorescence of the MCA group to be detected on a fluorometer (Cytofluor II) following excitation at 340 nm and emission at 395 nm. Change in fluorescence is continually monitored for a 40 min period.
The Ki's are calculated using the method described by Williams and Morrison, Methods in Enzymology, 63, 437-467 (1979) to measure Ki apparent for tight binding inhibitors, and is summarised as follows: [I]0/(1−vi/v0)=Ki apparent ×vi/v0+[E]0 [I]0 and [E]0 are inhibitor and enzyme concentrations, and vi/v0 are reaction velocities with/without inhibitor. […]
IC50's are determined at each enzyme concentration using Xlfit software. […]

CCOc1ccc(-c2ccc(C(=O)CC(CCN3C(=O)c4ccccc4C3=O)C(=O)O)cc2)cc1 (single isomer, unassigned; (+)) [Example 2, (+)-2-[2-(1,3-Dioxo-1,3-dihydro-2H-isoindol-2-yl)ethyl]-4-(4′-ethoxy[1,1′-biphenyl]-4-yl)-4-oxobutanoic acid]
inhibition at 0.03 µM (at 30 nM, read-out: % inh. of MMP-7): 38%

O=C(CC(CCN1C(=O)c2ccccc2C1=O)C(=O)O)c1ccc(-c2ccc(Cl)cc2)cc1 (single isomer, unassigned; (+)) [Example 4, (+)-4-(4′-Chloro[1,1′-biphenyl]4-yl)-2-[2-(1,3-dioxo-1,3-dihydro-2H-isoindol-2-yl)ethyl]-4-oxobutanoic acid]
Ki (read-out: Potency Ki vs. MMP-7): > 3 µM
